Columns and labels:
Assay type in all cases: in vivo
[1] = test system: giant foxtail (Setaria faberii); test: Test A postemergence; conditions: Setaria faberi, post-emergence, 240 h
In short: (§1)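 Treatment is preemergence as a directed soil spray after planting, or postemergence at the one- to two-leaf stage, with test chemical in a non-phytotoxic solvent mixture plus surfactant. Plants stay in the greenhouse about 10 d before visual injury scoring on a 0 to 100 scale versus untreated controls.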

[2] = test system: ragweed (common ragweed, Ambrosia elatior); test: Test A postemergence; conditions: Ambrosia artemisiifolia, post-emergence, 240 h
In short: as §1

[3] = test system: Kochia (Kochia scoparia); test: Test A postemergence; conditions: Bassia scoparia, post-emergence, 240 h
In short: as §1

[4] = test system: wheat (Triticum aestivum); test: Test A postemergence; conditions: Triticum aestivum, post-emergence, 240 h
In short: as §1

[5] = test system: pigweed (Amaranthus retroflexus); test: Test A postemergence; conditions: Amaranthus retroflexus, post-emergence, 240 h
In short: as §1

[6] = test system: barnyardgrass (Echinochloa crus-galli); test: Test A postemergence; conditions: Echinochloa crus-galli, post-emergence, 240 h
In short: as §1

[7] = test system: ryegrass, Italian (Italian ryegrass, Lolium multiflorum); test: Test A postemergence; conditions: Lolium multiflorum, post-emergence, 240 h
In short: as §1

[8] = test system: blackgrass (Alopecurus myosuroides); test: Test A postemergence; conditions: Alopecurus myosuroides, post-emergence, 240 h
In short: as §1

[9] = test system: corn (Zea mays); test: Test A postemergence; conditions: Zea mays, post-emergence, 240 h
In short: as §1

[10] = test system: barnyardgrass (Echinochloa crus-galli); test: Test B flooded paddy test; conditions: Echinochloa crus-galli, 250 g ai/ha, Flood; 0 to 100 scale where 0 is no effect and 100 is complete control; read-out: Barnyardgrass plant response rating
In short: (§2)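 Response scored visually against untreated controls, 0 = no effect and 100 = complete control, 13–15 d after treatment in the greenhouse. Compounds added to paddy water held 3 cm above soil surface. Treatment given at 2-leaf stage.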

[11] = test system: rice (Oryra sativa); test: Test B flooded paddy test; conditions: Oryza sativa, 250 g ai/ha, Flood; 0 to 100 scale where 0 is no effect and 100 is complete control; read-out: Rice plant response rating
In short: as §2

[12] = test system: sedge, umbrella (small-flower umbrella sedge, Cyperus difformis); test: Test B flooded paddy test; conditions: Cyperus difformis, 250 g ai/ha, Flood; 0 to 100 scale where 0 is no effect and 100 is complete control; read-out: Sedge, Umbrella plant response rating
In short: as §2

[13] = test system: ducksalad (Heteranthera limosa); test: Test B flooded paddy test; conditions: Heteranthera limosa, 250 g ai/ha, Flood; 0 to 100 scale where 0 is no effect and 100 is complete control; read-out: Ducksalad plant response rating
In short: as §2

[14] = test system: giant foxtail (Setaria faberii); test: Test A preemergence; conditions: Setaria faberi, pre-emergence, 240 h, 0 to 100 scale where 0 is no effect and 100 is complete control, read-out: Foxtail, Giant plant response rating
In short: as §1

[15] = test system: ragweed (common ragweed, Ambrosia elatior); test: Test A preemergence; conditions: Ambrosia artemisiifolia, pre-emergence, 240 h, 0 to 100 scale where 0 is no effect and 100 is complete control, read-out: Ragweed plant response rating
In short: as §1

[16] = test system: Kochia (Kochia scoparia); test: Test A preemergence; conditions: Bassia scoparia, pre-emergence, 240 h, 0 to 100 scale where 0 is no effect and 100 is complete control, read-out: Kochia plant response rating
In short: as §1

[17] = test system: pigweed (Amaranthus retroflexus); test: Test A preemergence; conditions: Amaranthus retroflexus, pre-emergence, 240 h, 0 to 100 scale where 0 is no effect and 100 is complete control, read-out: Pigweed plant response rating
[18] = test system: barnyardgrass (Echinochloa crus-galli); test: Test A preemergence; conditions: Echinochloa crus-galli, pre-emergence, 240 h, 0 to 100 scale where 0 is no effect and 100 is complete control, read-out: Barnyardgrass plant response rating
In short: as §1

[19] = test system: ryegrass, Italian (Italian ryegrass, Lolium multiflorum); test: Test A preemergence; conditions: Lolium multiflorum, pre-emergence, 240 h, 0 to 100 scale where 0 is no effect and 100 is complete control, read-out: Ryegrass, Italian plant response rating
In short: as §1

[20] = 125 g ai/ha, preemergence, approx. 10 d

Q: `CC(C)Oc1cc([C@H]2CN(C)C(=O)[C@@H]2C(=O)Nc2cccc(F)c2F)ccc1F` [Compound 1075] was tested. Which pest or weed control at 125 g/ha ([1]; 125 g ai/ha, postemergence, visual injury on 0 to 100 scale (0 no effect, 100 complete control), approx. 10 d, read-out: Foxtail, Giant plant response rating) did it give?
A: The pest or weed control at 125 g/ha was 90%.

Q: And the pest or weed control at 31 g/ha ([1]; Postemergence, 31 g ai/ha, visual injury after approx. 10 d, 0 to 100 scale, 0 no effect, 100 complete control, read-out: Plant response rating, Foxtail, Giant)?
A: Its pest or weed control at 31 g/ha is 80%.

Q: And the pest or weed control at 125 g/ha ([2]; 125 g ai/ha, postemergence, visual injury on 0 to 100 scale (0 no effect, 100 complete control), approx. 10 d, read-out: Ragweed plant response rating)?
A: The pest or weed control at 125 g/ha was 40%.

Q: What about the pest or weed control at 31 g/ha ([2]; Postemergence, 31 g ai/ha, visual injury after approx. 10 d, 0 to 100 scale, 0 no effect, 100 complete control, read-out: Plant response rating, Ragweed) of the same compound?
A: Its pest or weed control at 31 g/ha is 0%.

Q: What about the pest or weed control at 125 g/ha ([3]; 125 g ai/ha, postemergence, visual injury on 0 to 100 scale (0 no effect, 100 complete control), approx. 10 d, read-out: Kochia plant response rating) of the same compound?
A: Its pest or weed control at 125 g/ha is 30%.

Q: What about the pest or weed control at 31 g/ha ([3]; Postemergence, 31 g ai/ha, visual injury after approx. 10 d, 0 to 100 scale, 0 no effect, 100 complete control, read-out: Plant response rating, Kochia) of the same compound?
A: Its pest or weed control at 31 g/ha is 30%.

Q: What about the plant injury at 125 g/ha ([4]; 125 g ai/ha, postemergence, visual injury on 0 to 100 scale (0 no effect, 100 complete control), approx. 10 d, read-out: Wheat plant response rating) of the same compound?
A: Its plant injury at 125 g/ha is 60%.

Q: What about the plant injury at 31 g/ha ([4]; Postemergence, 31 g ai/ha, visual injury after approx. 10 d, 0 to 100 scale, 0 no effect, 100 complete control, read-out: Plant response rating, Wheat) of the same compound?
A: The plant injury at 31 g/ha was 0%.

Q: And the pest or weed control at 125 g/ha ([5]; 125 g ai/ha, postemergence, visual injury on 0 to 100 scale (0 no effect, 100 complete control), approx. 10 d, read-out: Pigweed plant response rating)?
A: The pest or weed control at 125 g/ha was 0%.

Q: And the pest or weed control at 31 g/ha ([5]; Postemergence, 31 g ai/ha, visual injury after approx. 10 d, 0 to 100 scale, 0 no effect, 100 complete control, read-out: Plant response rating, Pigweed)?
A: Its pest or weed control at 31 g/ha is 0%.

Q: What about the pest or weed control at 125 g/ha ([6]; 125 g ai/ha, postemergence, visual injury on 0 to 100 scale (0 no effect, 100 complete control), approx. 10 d, read-out: Barnyardgrass plant response rating) of the same compound?
A: Its pest or weed control at 125 g/ha is 90%.

Q: What about the pest or weed control at 31 g/ha ([6]; Postemergence, 31 g ai/ha, visual injury after approx. 10 d, 0 to 100 scale, 0 no effect, 100 complete control, read-out: Plant response rating, Barnyardgrass) of the same compound?
A: Its pest or weed control at 31 g/ha is 90%.

Q: What about the pest or weed control at 125 g/ha ([7]; 125 g ai/ha, postemergence, visual injury on 0 to 100 scale (0 no effect, 100 complete control), approx. 10 d, read-out: Ryegrass, Italian plant response rating) of the same compound?
A: The pest or weed control at 125 g/ha was 70%.

Q: What about the pest or weed control at 31 g/ha ([7]; Postemergence, 31 g ai/ha, visual injury after approx. 10 d, 0 to 100 scale, 0 no effect, 100 complete control, read-out: Plant response rating, Ryegrass, Italian) of the same compound?
A: Its pest or weed control at 31 g/ha is 0%.

Q: What about the pest or weed control at 125 g/ha ([8]; 125 g ai/ha, postemergence, visual injury on 0 to 100 scale (0 no effect, 100 complete control), approx. 10 d, read-out: Blackgrass plant response rating) of the same compound?
A: The pest or weed control at 125 g/ha was 50%.

Q: What about the pest or weed control at 31 g/ha ([8]; Postemergence, 31 g ai/ha, visual injury after approx. 10 d, 0 to 100 scale, 0 no effect, 100 complete control, read-out: Plant response rating, Blackgrass) of the same compound?
A: The pest or weed control at 31 g/ha was 40%.

Q: What about the plant injury at 125 g/ha ([9]; 125 g ai/ha, postemergence, visual injury on 0 to 100 scale (0 no effect, 100 complete control), approx. 10 d, read-out: Corn plant response rating) of the same compound?
A: Its plant injury at 125 g/ha is 70%.

Q: What about the Corn plant response rating (crop injury, 0 = no effect, 100 = complete kill) at 31 g/ha ([9]; Postemergence, 31 g ai/ha, visual injury after approx. 10 d, 0 to 100 scale, 0 no effect, 100 complete control) of the same compound?
A: Its Corn plant response rating (crop injury, 0 = no effect, 100 = complete kill) at 31 g/ha is 20%.

Q: And the pest or weed control at 250 g/ha [10]?
A: Its pest or weed control at 250 g/ha is 75%.

Q: And the pest or weed control at 250 g/ha [11]?
A: The pest or weed control at 250 g/ha was 35%.

Q: What about the pest or weed control at 250 g/ha [12] of the same compound?
A: The pest or weed control at 250 g/ha was 0%.

Q: What about the pest or weed control at 250 g/ha [13] of the same compound?
A: Its pest or weed control at 250 g/ha is 100%.

Q: What about the pest or weed control at 31 g/ha ([14]; 31 g ai/ha, Preemergence) of the same compound?
A: Its pest or weed control at 31 g/ha is 100%.

Q: And the pest or weed control at 125 g/ha [14, 20]?
A: Its pest or weed control at 125 g/ha is 100%.

Q: And the pest or weed control at 31 g/ha ([15]; 31 g ai/ha, Preemergence)?
A: The pest or weed control at 31 g/ha was 30%.

Q: And the pest or weed control at 125 g/ha [15, 20]?
A: Its pest or weed control at 125 g/ha is 20%.

Q: And the pest or weed control at 31 g/ha ([16]; 31 g ai/ha, Preemergence)?
A: Its pest or weed control at 31 g/ha is 0%.

Q: What about the pest or weed control at 125 g/ha [16, 20] of the same compound?
A: Its pest or weed control at 125 g/ha is 30%.

Q: What about the pest or weed control at 31 g/ha ([17]; 31 g ai/ha, Preemergence) of the same compound?
A: The pest or weed control at 31 g/ha was 0%.

Q: What about the pest or weed control at 125 g/ha [17, 20] of the same compound?
A: Its pest or weed control at 125 g/ha is 20%.

Q: And the pest or weed control at 31 g/ha ([18]; 31 g ai/ha, Preemergence)?
A: The pest or weed control at 31 g/ha was 100%.

Q: And the pest or weed control at 125 g/ha [18, 20]?
A: Its pest or weed control at 125 g/ha is 100%.

Q: And the pest or weed control at 31 g/ha ([19]; 31 g ai/ha, Preemergence)?
A: The pest or weed control at 31 g/ha was 50%.

Q: What about the pest or weed control at 125 g/ha [19, 20] of the same compound?
A: Its pest or weed control at 125 g/ha is 80%.

Source: US12077503B2, “Substituted cyclic amides and their use as herbicides” (FMC CORPORATION, priority 2015, dated 2024)
